“Also recorded” adds a separate entry of the source.
System: β-amyloid peptide (Aβ) synthesized by β APP-CHO cells
Test: Aβ production in βAPP-CHO cells, sandwich ELISA
Format: cell-based, Chinese hamster
Conditions: CHO cells overexpressing human βAPP, test compounds added at various dose concentrations to the medium, FIG. 5 and FIG. 6
Excerpt: This experiment was designed to determine the ability of lipid regulating agents to alter the production of β-amyloid peptide (Aβ) in cultured cells, and their consequent activity in preventing and treating Alzheimer's Disease.
Chinese hamster ovary (CHO) cells were stably transfected with a construct to enable the overexpression of the human β-amyloid precursor protein (βAPP) gene to cause increased production of Aβ. The measurement of Aβ synthesized by these β APP-CHO cells was done using a standard sandwich ELISA assay, employing well-characterized antibodies to the N-terminus (6E10) and middle (4G8) of Aβ. This assay is routinely used to measure Aβ in tissues, body fluids, and cell culture media. Cultures of β APP-CHO cells were grown to near confluency, and then the test compounds were added at various dose concentrations to the cell medium.

## CC[C@H](C)C(=O)O[C@H]1CCC=C2C=C[C@H](C)[C@H](CC[C@@H]3C[C@@H](O)CC(=O)O3)[C@H]21 [mevastatin]
  reduction in Aβ: dose-dependent inhibition
Listed as Mevastatin
  reduction in Aβ: dramatic dose-dependent reduction

## Cc1ccc(C)c(OCCCC(C)(C)C(=O)O)c1 [CI-719, gemfibrozil]
  reduction in Aβ: only moderate changes

## CC[C@H](C)C(=O)O[C@H]1C[C@@H](C)C=C2C=C[C@H](C)[C@H](CC[C@@H]3C[C@@H](O)CC(=O)O3)[C@H]21 [lovastatin]
  reduction in Aβ: dose-dependent inhibition; also recorded: dramatic dose-dependent reduction

## CC(C)(CCCCOCCCCC(C)(C)C(=O)O)C(=O)O [CI-1027]
  reduction in Aβ: only moderate changes

## c1coc(CSC2=NCCS2)c1 [PD 69405]
  reduction in Aβ: only moderate changes

## CC(C)c1cc(C(C)C)c(CC(=O)NS(=O)(=O)Oc2c(C(C)C)cccc2C(C)C)c(C(C)C)c1 [Avasimibe]
  reduction in Aβ: substantial dose-dependent reduction
